Data published in US20180072997A1, “INHIBITORS OF HUMAN IMMUNODEFICIENCY VIRUS REPLICATION” (ViiV HEATHCARE UK (NO.5) LIMITED, priority 2015, published 2018).

Key:
[1] = tested on: recombinant NL4-3 virus (Renilla luciferase in nef) in MT-2 cells; test: whole plant or invertebrate; assay type: cell-based, HIV; conditions: Renilla, NL43, MT-2 cells infected for 4-5 days with recombinant NL4-3 Renilla luciferase virus; luciferase activity
In short: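 MT-2 cells infected for 4-5 days with NL4-3 reporter virus (Renilla luciferase replacing part of nef, produced by transfection of 293T cells) in the presence of serial compound dilutions. Antiviral activity quantified by luciferase activity read with a live-cell substrate.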

[2] = Compound cytotoxicity, XTT-based colorimetric assay; assay type: cell-based; conditions: human, uninfected MT2 cells, day 4, XTT
In short: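 Run under the antiviral-assay protocol but without virus. Viability was read on day 4 and CC50 values were derived from the readout.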

## COc1ccc(N(C)C(=O)[C@H](Cc2ccccc2)NC(=O)c2cc(C(=O)N[C@@H](Cc3ccccc3)C(=O)N(C)c3ccc(OC)cc3)on2)cc1 [Example 116]
[1]
  EC50: 0.71 µM
[2]
  CC50 at 4 days: 1.5 µM

## COc1ccc(N(C)C(=O)[C@H](Cc2ccccc2)NC(=O)/C=C/CC(=O)N[C@@H](Cc2ccccc2)C(=O)N(C)c2ccc(OC)cc2)cc1 [Example 117]
[1]
  EC50: 0.64 µM
[2]
  CC50 at 4 days: 30.8 µM

## CN(C(=O)[C@H](Cc1cc(F)cc(F)c1)NC(=O)Cn1c(=O)n(CC(=O)N[C@@H](Cc2cc(F)cc(F)c2)C(=O)N(C)c2ccc3scnc3c2)c2ccccc21)c1ccc2scnc2c1 [Example 119]
[1]
  EC50: 0.01 µM
[2]
  CC50 at 4 days: ≥ 100 µM

## C=CCN(C(=O)[C@H](Cc1cc(F)cc(F)c1)NC(=O)NS(=O)(=O)N[C@@H](Cc1cc(F)cc(F)c1)C(=O)N(CC=C)c1ccc(OC)cc1)c1ccc(OC)cc1 [Example 120]
[1]
  EC50: 0.26 µM
[2]
  CC50 at 4 days: 23.3 µM

## C=CCCN(C(=O)[C@H](Cc1cc(F)cc(F)c1)NC(=O)NS(=O)(=O)N[C@@H](Cc1cc(F)cc(F)c1)C(=O)N(CCC=C)c1ccc(OC)cc1)c1ccc(OC)cc1 [Example 121]
[1]
  EC50: 0.73 µM
[2]
  CC50 at 4 days: 18.8 µM

## COc1ccc(N(CCF)C(=O)[C@H](Cc2cc(F)cc(F)c2)NC(=O)CN2c3ccccc3N(CC(=O)N[C@@H](Cc3cc(F)cc(F)c3)C(=O)N(CCF)c3ccc(OC)cc3)S2(=O)=O)cc1 [Example 122]
[1]
  EC50: 0.09 µM
[2]
  CC50 at 4 days: ≥ 100 µM

## C=CCCN(C(=O)[C@H](Cc1cc(F)cc(F)c1)NS(=O)(=O)NC(=O)N[C@@H](Cc1cc(F)cc(F)c1)C(=O)N(CC=C)c1ccc(OC)cc1)c1ccc(OC)cc1 [Example 123]
[1]
  EC50: 0.38 µM
[2]
  CC50 at 4 days: 19.2 µM

## COc1ccc(N(C)C(=O)[C@H](Cc2ccccc2)Nc2nc(N)nc(N[C@@H](Cc3ccccc3)C(=O)N(C)c3ccc(OC)cc3)n2)cc1 [Example 124]
[1]
  EC50: 3.8 µM
[2]
  CC50 at 4 days: 31 µM

## COc1ccc(N(CCF)C(=O)[C@H](Cc2cc(F)cc(F)c2)NC(=O)Cn2c(=O)n(CC(=O)N[C@@H](Cc3cc(F)cc(F)c3)C(=O)N(CCF)c3ccc(OC)cc3)c3ccccc32)cc1 [Example 125]
[1]
  EC50: 0.34 µM
[2]
  CC50 at 4 days: ≥ 100 µM

## CN(C(=O)[C@H](Cc1cc(F)cc(F)c1)NC(=O)c1ccc(F)c(C(=O)N[C@@H](Cc2cc(F)cc(F)c2)C(=O)N(C)c2ccc3scnc3c2)c1)c1ccc2scnc2c1 [Example 126]
[1]
  EC50: 0.01 µM
[2]
  CC50 at 4 days: ≥ 100 µM

## Cc1cc(C(=O)N[C@@H](Cc2cc(F)cc(F)c2)C(=O)N(C)c2ccc3scnc3c2)cc(C(=O)N[C@@H](Cc2cc(F)cc(F)c2)C(=O)N(C)c2ccc3scnc3c2)c1 [Example 127]
[1]
  EC50: 0.01 µM
[2]
  CC50 at 4 days: 3.8 µM

## CN(C(=O)[C@H](Cc1cc(F)cc(F)c1)NC(=O)/C=C\C(=O)N[C@@H](Cc1cc(F)cc(F)c1)C(=O)N(C)c1ccc2scnc2c1)c1ccc2scnc2c1 [Example 128]
[1]
  EC50: 0.08 µM
[2]
  CC50 at 4 days: 12.6 µM

## CN(C(=O)[C@H](Cc1cc(F)cc(F)c1)NC(=O)c1cncc(C(=O)N[C@@H](Cc2cc(F)cc(F)c2)C(=O)N(C)c2ccc3scnc3c2)c1)c1ccc2scnc2c1 [Example 129]
[1]
  EC50: 0.01 µM
[2]
  CC50 at 4 days: 5.3 µM

## CN(C(=O)[C@H](Cc1ccccc1)Nc1nccc(-c2ccnc(N[C@@H](Cc3ccccc3)C(=O)N(C)c3ccc4scnc4c3)n2)n1)c1ccc2scnc2c1 [Example 135]
[1]
  EC50: 0.09 µM
[2]
  CC50 at 4 days: 0.5 µM

## CN(C(=O)[C@H](Cc1ccccc1)Nc1ncc(-c2cnc(N[C@@H](Cc3ccccc3)C(=O)N(C)c3ccc4scnc4c3)nc2)cn1)c1ccc2scnc2c1 [Example 136]
[1]
  EC50: 0.34 µM
[2]
  CC50 at 4 days: ≥ 100 µM

## C=CCCN(C(=O)[C@H](Cc1cc(F)cc(F)c1)NC(=O)NS(=O)(=O)N[C@@H](Cc1cc(F)cc(F)c1)C(=O)N(CC=C)c1ccc(OC)cc1)c1ccc(OC)cc1 [Example 138]
[1]
  EC50: 0.26 µM
[2]
  CC50 at 4 days: 12.9 µM

## C=CCN(C(=O)[C@H](Cc1cc(F)cc(F)c1)NC(=O)c1ccc(F)c(C(=O)N[C@@H](Cc2cc(F)cc(F)c2)C(=O)N(CC=C)c2ccc(OC)cc2)c1)c1ccc(OC)cc1 [Example 139]
[1]
  EC50: 0.04 µM
[2]
  CC50 at 4 days: ≥ 33.3 µM

## C=CCN(C(=O)[C@H](Cc1cc(F)cc(F)c1)NC(=O)NS(=O)(=O)N[C@@H](Cc1cc(F)cc(F)c1)C(=O)N(CC=C)c1ccc2scnc2c1)c1ccc2scnc2c1 [Example 140]
[1]
  EC50: 0.1 µM
[2]
  CC50 at 4 days: 32.7 µM

## COc1ccc(N(C)C(=O)[C@H](Cc2ccccc2)Nc2ccnc(N[C@@H](Cc3ccccc3)C(=O)N(C)c3ccc(OC)cc3)n2)cc1 [Example 145]
[1]
  EC50: 12 µM
[2]
  CC50 at 4 days: 19.1 µM

## CN(C(=O)[C@H](Cc1cc(F)cc(F)c1)Nc1ccnc(N[C@@H](Cc2cc(F)cc(F)c2)C(=O)N(C)c2ccc3scnc3c2)n1)c1ccc2scnc2c1 [Example 146]
[1]
  EC50: 2.86 µM
[2]
  CC50 at 4 days: 30.6 µM
